Assays:
mTRPC4ß = biological target: T1, mTRPC4ß (Mus musculus, UniProt Q9QUQ5); experiment: Whole-cell patch clamp, TRPC4 currents; assay type: cell-based; details: 10 µM; not separable from current run-down
T1 construct: expressed in transfected cells
T1 sequence (Q9QUQ5 1-890 isoform Q9QUQ5-2): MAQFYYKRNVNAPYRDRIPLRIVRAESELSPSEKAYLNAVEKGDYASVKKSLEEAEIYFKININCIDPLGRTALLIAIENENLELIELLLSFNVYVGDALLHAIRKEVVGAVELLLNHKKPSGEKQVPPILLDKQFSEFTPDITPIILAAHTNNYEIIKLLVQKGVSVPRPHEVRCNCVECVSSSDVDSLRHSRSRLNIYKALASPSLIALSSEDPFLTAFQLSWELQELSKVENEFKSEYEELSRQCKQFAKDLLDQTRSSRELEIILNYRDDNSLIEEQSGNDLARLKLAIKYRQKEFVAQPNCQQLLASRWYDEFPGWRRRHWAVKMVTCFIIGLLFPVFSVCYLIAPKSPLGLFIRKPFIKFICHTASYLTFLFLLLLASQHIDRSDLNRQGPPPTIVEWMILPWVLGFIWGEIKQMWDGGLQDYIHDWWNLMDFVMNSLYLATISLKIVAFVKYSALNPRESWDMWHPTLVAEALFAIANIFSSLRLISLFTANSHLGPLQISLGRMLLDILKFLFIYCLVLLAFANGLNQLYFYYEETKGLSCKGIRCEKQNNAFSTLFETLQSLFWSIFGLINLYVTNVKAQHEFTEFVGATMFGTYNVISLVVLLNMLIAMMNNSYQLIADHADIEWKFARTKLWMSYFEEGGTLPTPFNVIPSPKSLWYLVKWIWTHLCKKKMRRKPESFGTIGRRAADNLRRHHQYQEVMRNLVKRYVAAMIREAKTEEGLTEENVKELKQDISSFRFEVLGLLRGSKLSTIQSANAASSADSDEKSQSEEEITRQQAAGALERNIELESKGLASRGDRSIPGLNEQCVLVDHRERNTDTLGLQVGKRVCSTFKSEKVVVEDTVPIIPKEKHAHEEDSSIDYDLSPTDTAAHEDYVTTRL
Experimental: Cells were grown at 37°C in a humidified atmosphere (5% or 7% CO2) under standard cell culture conditions. Stable human embryonic kidney (HEK) cell lines expressing recombinant mTRPC4ß (GenBank accession number AAC05178); mTRPC5 (GenBank accession number NM_009428) or hTRPC6 (GenBank accession number AF080394) under the control of a tetracycline-inducible promoter were generated using the Flp-In T-Rex (FITR) system (Invitrogen, Karlsruhe, Germany). TRPC4/5/6 HEK-FITR cells were maintained in Dulbecco's modified eagle medium (DMEM, with glutaMAX I, 4.5 g/l glucose and […] sodium pyruvate) supplemented with 10% (v/v) fetal bovine serum (Biochrom, Berlin, Germany), 1 mM glutamine, 1 mM MEM sodium pyruvate, 40 µg/ml hygromycin (50 µg/ml for mTRPC5 HEK-FITR cells), and 15 µg/ml blasticidine HCl. Channel expression was induced by supplementing the growth medium for 18–24 h with 1 µg/ml doxycycline.
The whole-cell patch clamp technique was employed to measure ion currents from single cells. […]
Cells grown on poly-L-lysine-coated coverslips were continuously superfused with extracellular solution and substances were applied using an ALA BPS-8 perfusion system (ALA Scientific Instruments, Westbury, USA). […] Cells were held at −70 mV, and current-voltage (I–V) relationships were routinely measured every 2 or 3 s by applying voltage ramps (180 ms) from −100 mV to +80 mV. […]

rat aortic rings = experiment: Isometric force measurement, relaxation of phenylephrine pre-contracted rat aortic rings; details: L-NAME treated, n = 6, read-out: EC50, vasorelaxation of pre-contracted aortic rings
Experimental: Adult male Wistar-Unilever rats (8–11 weeks old; Harlan Winkelmann, Borchen, Germany) were sacrificed by decapitation. Thoracic aortas were excised quickly, transferred to cold (4°C), carbogen (95% O2 and 5% CO2) bubbled physiological salt solution (119 mM NaCl, 4.7 mM KCl, 1.2 KH2PO4, 1.2 mM MgSO4, 1.6 mM CaCl2, 25 mM NaHCO3, 11 mM glucose) and rinsed. After removal of connective tissue and perivascular fat aortas were dissected in 5 mm rings, connected to force transducers and equilibrated in carbogen bubbled physiological salt solution at 37°C for 15 min. Aortic rings were set at 1000 mg passive tension and contractile forces were then measured isometrically using standard bath procedures as described earlier. […]
For statistical analysis, analysis of variance was performed with Origin 6.0 software (Microcal Software Inc., Northampton, USA). […] IC50 were calculated with SigmaPlot (Systat software, San Jose, USA) using the sigmoidal Hill-model: f = 100 (C^n/(IC50 ^n+C^n)); where f is the inhibition, C is the applied drug concentration and n is the Hill coefficient. The half maximal effective concentration (EC50) of norgestimate-induced vasorelaxation was calculated analogously with R = y0+y1C^n/(EC50 ^n+C^n); where R is relaxation, yo and y1 are constants, C is the applied drug concentration and n is the Hill coefficient. Averaged data is expressed as means ± SEM.

- Effect on TRPC4 currents (mTRPC4ß): apparently small, irreversible
- EC50 (rat aortic rings): 8.19 µM
SMILES: C#C[C@]1(OC(C)=O)CC[C@H]2[C@@H]3CCC4=CC(=NO)CC[C@@H]4[C@H]3CC[C@@]21CC (mixture of isomers) [norgestimate]

Source: publication PMC3328449, “Inhibition of Diacylglycerol–Sensitive TRPC Channels by Synthetic and Natural Steroids” (PLoS ONE, 2012)
